Values of other authors, collected in patent US20140371717A1, “DRUG DELIVERY MEDICAL DEVICE” (Micell Technologies, Inc., priority 2011, published 2014).

Columns and labels:
FKBP12 = FKBP12 (Homo sapiens, UniProt P62942)
[1] = value in μM

FKBP12, sequence (P62942 whole entry, species assumed): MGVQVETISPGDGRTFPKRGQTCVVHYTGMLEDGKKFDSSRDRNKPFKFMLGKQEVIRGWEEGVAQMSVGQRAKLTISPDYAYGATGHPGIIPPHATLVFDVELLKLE

| SMILES | FKBP12 binding (FKBP12) [nM] | Antiproliferative potency (nM) [1] | FKBP12 binding (nM) (FKBP12) |
| --- | --- | --- | --- |
| CO[C@H]1C[C@@H]2CC[C@@H](C)[C@@](O)(O2)C(=O)C(=O)N2CCCC[C@H]2C(=O)O[C@H]([C@H](C)C[C@@H]2CC[C@H](n3cnnn3)[C@H](OC)C2)CC(=O)[C@H](C)/C=C(\C)[C@@H](O)[C@@H](OC)C(=O)[C@H](C)C[C@H](C)/C=C/C=C/C=C/1C [Zotarolimus] | 2.0 to 3.2 |  |  |
| C=CC[C@@H]1/C=C(\C)C[C@H](C)C[C@H](OC)[C@H]2O[C@@](O)(C(=O)C(=O)N3CCCC[C@H]3C(=O)O[C@H](/C(C)=C/[C@@H]3CC[C@@H](O)[C@H](OC)C3)[C@H](C)[C@@H](O)CC1=O)[C@H](C)C[C@@H]2OC [Tacrolimus] | 0.2 to 0.4 |  |  |
| CC[C@@H]1/C=C(\C)C[C@H](C)C[C@H](OC)[C@H]2O[C@@](O)(C(=O)C(=O)N3CCCC[C@H]3C(=O)O[C@H](/C(C)=C/[C@@H]3CC[C@H](Cl)[C@H](OC)C3)[C@H](C)[C@@H](O)CC1=O)[C@H](C)C[C@@H]2OC [Pimecrolimus] |  | about 1 μM | about 1.2 nM |
| CO[C@H]1C[C@@H]2CC[C@@H](C)[C@@](O)(O2)C(=O)C(=O)N2CCCC[C@H]2C(=O)O[C@H]([C@H](C)C[C@@H]2CC[C@@H](OCCO)[C@H](OC)C2)CC(=O)[C@H](C)/C=C(\C)[C@@H](O)[C@@H](OC)C(=O)[C@H](C)C[C@H](C)/C=C/C=C/C=C/1C [Everolimus, 40-O-(2-Hydroxyethyl)rapamycin] | 1.8 to 2.6 |  |  |
| CO[C@H]1C[C@@H]2CC[C@@H](C)[C@@](O)(O2)C(=O)C(=O)N2CCCC[C@H]2C(=O)O[C@H]([C@H](C)C[C@@H]2CC[C@@H](OC(=O)C(C)(CO)CO)[C@H](OC)C2)CC(=O)[C@H](C)/C=C(\C)[C@@H](O)[C@@H](OC)C(=O)[C@H](C)C[C@H](C)/C=C/C=C/C=C/1C [Temsirolimus, 42-[3-hydroxy-2-(hydroxymethyl)-2-methylpropanoate]rapamycin] |  |  | about the same as Sirolimus |
